{"source": "patent US20240122974A1", "about": "“TREATMENT OF MYOPIA” (University of Utah Research Foundation, priority 2021, published 2024)", "key": {"lysyl oxidase (LOX) [1]": {"target": "T1, lysyl oxidase (LOX) (Homo sapiens, UniProt P28300)", "protocol": "To examine LOX activity in normal corneal cells with copper perchlorate and to compare activity with copper sulfate, cultured corneal stroma cells from normal corneas (n=3 each) in 10% fetal bovine serum (FBS) DMEM were either exposed to copper sulfate or copper perchlorate in BSS then filtered through a 0.25 μm filter. Conditioned culture medium underwent a peroxidase-coupled fluorometric activity assay for LOX using Amplex red. As a parallel assay, we added 500 uM aminopropionitrile (BAPN) which can diminish LOX activity completely. The fluorescence of oxidized Amplex red was recorded every 10 minutes using fluorescence plate reader. After subtracting the background fluorescence, the fluorescence intensity was plotted against the incubation time (FIG. 1)."}, "[2]": {"test_system": "sclera of guinea pig pups", "settings": "0.08 mg/mL copper perchlorate hexahydrate eye drops twice a day, 6-8 weeks, n=5; untreated sclera 3.9×10^−4; p=0.036", "protocol": "Lysyl oxidase converts lysine to allysine, and conjugates it to lysine or hydroxylysine spontaneously, becoming lysinonorleucine (LNL), an established biomarker of collagen crosslinking. […] After 6 weeks the scleras were dissected and analyzed for LNL content using mass spectroscopy (LC-MS). Semi-quantitative mass spectral analysis was performed using a Sciex 6500 Q-Trap (Sciex, Framingham, MA)."}, "[3]": {"test_system": "sclera of guinea pig pups", "settings": "0.08 mg/mL copper perchlorate hexahydrate eye drops twice a day, 8 weeks, n=3, vs untreated sclera, FIG. 3", "protocol": "After eight weeks the sclera was dissected for creep compliance testing. Compliance was tested using an Instrong 5943 Mechanical Testing system with custom grips and a 5 N Futek load cell. Each of the six specimens were loaded to 0.005 kgf, corresponding to an equivalent pressure of 12.0-16.6 mmHg depending on specimen dimensions."}, "[4]": {"test_system": "genetic model of guinea pig myopia", "settings": "0.22 mg/ml once a day", "protocol": "0.22 mg/ml copper perchlorate was administered once a day for approximately 3 months to right eye only. The cycloplegic refraction was measured biweekly by a masked pediatric ophthalmologist."}, "lysyl oxidase (LOX) [5]": {"target": "T1, lysyl oxidase (LOX)", "settings": "normal sclera cells, FIG. 8"}, "[6]": {"test_system": "spontaneous myopic albino guinea pigs", "assay": "Spontaneous myopic progression in albino guinea pig pups", "settings": "0.22 mg/mL twice a day", "method": "Spontaneous myopic albino guinea pigs were used as a model of pediatric myopia. […] Pups of albino guinea pigs were used as a pediatric model starting at age 4-7 days. In this group of n=5 pups, all left eyes were untreated (internal control). The other eye (right eye) was treated with 0.22 mg/mL copper perchlorate hexahydrate twice a day. Treatment started at approximately 1 week of age and continued for approximately 2 months. Measurements were taken between 5-7 days of age (baseline-no treatment) and then biweekly. We examined refractive error by streak retinoscopy after dilation, and axial length by Lenstar biometry (Haag-Streit). Cycloplegic refractive error and cornea inflammation was measured by a masked pediatric ophthalmologist."}, "[7]": {"test_system": "genetic model of guinea pig myopia", "assay": "Genetic model of guinea pig myopia, 0.35 mg/ml eye drops twice a day", "method": "Copper perchlorate was administered at 0.35 mg/ml to guinea pigs."}}, "note": "Where two headings read alike, the source gives them in different places.", "data": [{"compound": "O.O.O.O.O.O.[Cu+2].[O-][Cl+3]([O-])([O-])[O-].[O-][Cl+3]([O-])([O-])[O-]", "note": "[copper perchlorate, copper (II) perchlorate hexahydrate]", "values": [{"measurement": "LOX activity compared with the same molar concentration of copper sulfate", "setting": "lysyl oxidase (LOX) [1]; concentrations as low as 100 nM", "value": "increased LOX activity more than the same molar concentration of copper sulfate"}, {"measurement": "induction of LOX activity compared with copper sulfate", "setting": "lysyl oxidase (LOX) [1]; keratoconic human cornea stroma cells, concentration as low as 100 nM, FIG. 1B", "value": "higher induction of LOX activity than copper sulfate"}, {"measurement": "LOX enzyme activity", "setting": "lysyl oxidase (LOX) [1]; normal corneal stroma cells, conditioned culture medium, FIG. 1a", "value": "dramatically increased LOX enzyme activity in a dose response manner"}, {"measurement": "LNL response in treated sclera", "setting": "[2]", "value": 0.00069, "unit": "µg/mg"}, {"measurement": "scleral creep compliance", "setting": "[3]", "value": "decreased creep compliance"}, {"measurement": "more myopia developed in untreated left eyes than in treated right eyes (change from baseline)", "setting": "[4]; Day 81", "value": 2.27, "unit": "diopters"}, {"measurement": "slope analysis: refractive error decrease, untreated left eye more than treated right eye", "setting": "[4]; about 3 months, right eye only, p=0.0189", "value": "0.027(sd=0.011) per day"}, {"measurement": "LOX enzyme activity", "setting": "lysyl oxidase (LOX) [5]", "value": "dramatically increased LOX enzyme activity in a dose response manner"}, {"measurement": "axial length, treated eye (OD) compared to control eye (OS)", "setting": "[6]; FIG. 5", "value": "trend of reducing"}, {"measurement": "vitreous chamber depth, treated eye (OD) compared to control eye (OS)", "setting": "[6]; FIG. 5", "value": "trend of reducing"}, {"measurement": "clinical observations of toxicity or discoloration of corneas", "setting": "[6]; about 2 months, topical to right eye", "value": "no toxicity or discoloration"}, {"measurement": "slowing of myopic progression in refractive error", "setting": "[6]; within 9 weeks of treatment, treated vs control eye, n=5", "value": 48, "unit": "%"}, {"measurement": "myopia at the end of the experiment, treated versus control eyes", "setting": "[7]; n=5", "value": "significantly less myopic"}, {"measurement": "axial elongation, treated versus control eye", "setting": "[7]; n=5, p<0.05", "value": "significantly reduced"}, {"measurement": "vitreous chamber depth elongation, treated versus control eye", "setting": "[7]; n=5, p<0.05", "value": "significantly reduced"}]}]}
